Data as given in US7485634B2, “Azepinoindole and pyridoindole derivatives as pharmaceutical agents” (Exelixis, Inc., priority 2002, dated 2009).
Read-outs that look alike come from different tables or passages of the source.

Assays:
farnesoid X receptor = molecular target: T1, farnesoid X receptor (Homo sapiens, UniProt Q96RI1); assay: one or more of the in vitro assays described herein (TR-FRET assay, Example 75; co-transfection assay, Example 76); settings: for Emax: read-out: efficacy; for inhibition: 100% = baseline (DMSO only);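 for all read-outs here: TR-FRET assay or luciferase reporter in CV-1 monkey kidney cells co-transfected with human FXR and RXRα, dose-response over 8 half-log concentrations, CDCA added in antagonist mode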
T1 construct: fused on or other part: GST fused in frame to the N-terminus of the LBD (TR-FRET assay only); Nothing is fused on in the co-transfection assay
T1 sequence (Q96RI1 244-471 isoform Q96RI1-2 limits assumed): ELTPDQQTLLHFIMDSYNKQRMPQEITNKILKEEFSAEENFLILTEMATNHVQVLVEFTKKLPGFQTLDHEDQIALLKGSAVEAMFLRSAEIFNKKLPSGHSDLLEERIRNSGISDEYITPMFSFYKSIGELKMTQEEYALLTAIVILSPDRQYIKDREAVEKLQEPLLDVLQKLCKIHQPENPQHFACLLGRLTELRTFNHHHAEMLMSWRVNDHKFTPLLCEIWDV

[1] = molecular target: T2, full length human farnesoid X receptor (Homo sapiens, UniProt Q96RI1); assay: farnesoid X receptor/ECREx7 co-transfection assay (luciferase reporter, CV-1 cells); type: cell-based; settings: read-out: agonist activity EC50
T2 construct: CMX-farnesoid X receptor (full length human farnesoid X receptor); expressed in transfected cells; host or cells: CV-1 African Green Monkey Kidney cells
T2 sequence (Q96RI1 1-472 isoform Q96RI1-2): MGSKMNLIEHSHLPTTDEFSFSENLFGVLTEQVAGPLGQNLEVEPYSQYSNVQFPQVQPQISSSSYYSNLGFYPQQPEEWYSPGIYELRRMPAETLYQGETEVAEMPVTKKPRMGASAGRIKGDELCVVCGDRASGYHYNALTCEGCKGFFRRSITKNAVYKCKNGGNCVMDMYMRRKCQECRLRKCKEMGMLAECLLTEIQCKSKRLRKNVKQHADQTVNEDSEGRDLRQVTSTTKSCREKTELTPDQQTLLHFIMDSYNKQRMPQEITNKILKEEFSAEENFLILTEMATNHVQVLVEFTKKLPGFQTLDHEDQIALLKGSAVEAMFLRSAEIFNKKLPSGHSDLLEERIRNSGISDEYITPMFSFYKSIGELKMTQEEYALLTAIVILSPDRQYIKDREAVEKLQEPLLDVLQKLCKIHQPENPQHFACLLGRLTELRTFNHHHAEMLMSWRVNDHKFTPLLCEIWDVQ
T2 sequence (P19793 1-462 partner): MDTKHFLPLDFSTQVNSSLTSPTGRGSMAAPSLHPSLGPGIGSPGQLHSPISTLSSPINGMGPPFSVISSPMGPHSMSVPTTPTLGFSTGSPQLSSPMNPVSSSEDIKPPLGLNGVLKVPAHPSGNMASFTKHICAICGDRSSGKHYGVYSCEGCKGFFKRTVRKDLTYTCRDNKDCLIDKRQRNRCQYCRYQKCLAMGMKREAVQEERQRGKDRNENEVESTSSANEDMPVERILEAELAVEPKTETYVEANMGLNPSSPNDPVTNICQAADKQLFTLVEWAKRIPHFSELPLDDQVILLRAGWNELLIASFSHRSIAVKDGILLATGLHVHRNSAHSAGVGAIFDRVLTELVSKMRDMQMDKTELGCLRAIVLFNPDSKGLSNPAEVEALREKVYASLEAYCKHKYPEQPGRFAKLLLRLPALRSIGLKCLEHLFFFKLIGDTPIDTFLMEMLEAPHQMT
Procedure: The basic co-transfection protocol for measuring the farnesoid X receptor activity is as follows. CV-1 African Green Monkey Kidney cells were plated 24 hours before transfection to achieve approximately 70-80 percent confluency. Cells were transfected with the following expression vectors, CMX-farnesoid X receptor (full length human farnesoid X receptor), CMX-RXRα (full length human RXR), Luc12 (ECREx7-Tk-Luciferase) luciferase reporter gene construct. (See WO 00/76523, Venkateswaran et al., (2000) J. Biol. Chem. 275 14700-14707). A CMX-β-Galactosidase expression vector was used as a transfection control. The transfection reagent used was DOTAP (Boehringer Mannheim). Cells were incubated with the DOTAP/DNA mixture for 5 hours after which the cells were harvested and plated onto either 96 well or 384 well plates containing the appropriate concentration of test compound. The assay was allowed to continue for an additional 18-20 hours, after which the cells were lysed, with lysis buffer (1% triton X 100, 10% glycerol, 5 mM Dithiothreitol, 1 mM EGTA, 25 mM Tricine, pH 7.8) and the luciferase activity measured in the presence of Luciferase assay buffer (0.73 mM ATP, 22.3 mM Tricine, 0.11 mM EGTA, 0.55 mM Luciferin, 0.15 mM Coenzyme A, 0.5 mM HEPES, 10 mM Magnesium sulphate) on a standard luminomter plate reader (PE Biosystems, NorthStar Reader), using recommended operating instructions and conditions.
Both the farnesoid X receptor/ECREx7 co-transfection assay (Example 76) and the TR-FRET assay (Example 75) can be used to establish the EC50/IC50 values for potency and percent activity or inhibition for efficacy. Efficacy defines the activity of a compound relative to a high control (chenodeoxycholic acid, CDCA) or a low control (DMSO/vehicle). The dose response curves are generated from an 8 point curve with concentrations differing by ½ LOG units. Each point represents the average of 4 wells of data from a 384 well plate. The curve for the data is generated by using the equation: Y=Bottom+(Top−Bottom)/(1+10^((LogEC50−X)*HillSlope))
The EC50/IC50 is therefore defined as the concentration at which an agonist or antagonist elicits a response that is half way between the Top (maximum) and Bottom (baseline) values. The EC50/IC50 values represented are the averages of at least 3 independent experiments. The determination of the relative efficacy or % control for an agonist is by comparison to the maximum response achieved by chenodeoxycholic acid that is measured individually in each dose response experiment.
For the antagonist assay, CDCA is added to each well of a 384 well plate to elicit a response. The % inhibition for each antagonist is therefore a measurement of the inhibition of the activity of CDCA.

[2] = inhibition of the activity of CDCA, read-out: IC50 (antagonist / partial agonist)
[3] = one or more of the in vitro assays, read-out: EC50 (agonist / partial agonist)
[4] = relative to maximum response of chenodeoxycholic acid (CDCA)
[5] = inhibition of the activity of CDCA

EC50 (farnesoid X receptor; [3])	Emax (farnesoid X receptor; [4])	Structure (SMILES)	IC50 (farnesoid X receptor; [2])	inhibition (farnesoid X receptor; [5])	other results
< 100 nM	> 100%	CCOC(=O)C1=CN(C(=O)c2ccc(F)c(F)c2)CC(C)c2c1[nH]c1ccccc21 (stereo not drawn) [ethyl 3-(3,4-difluorobenzoyl)-1-methyl-1,2,3,6-tetrahydroazepino[4,5-b]indole-5-carboxylate]	–	–	–
–	–	CCCOC(=O)C1=CN(C(=O)c2ccc(F)cc2)C(C)Cc2c1[nH]c1cc(F)ccc21 (stereo not drawn) [n-propyl 3(4-fluorobenzoyl)-2-methyl-8-fluoro-1,2,3,6-tetrahydroazepino[4,5-b]indole-5-carboxylate]	–	–	EC50 [1]: < 1000 nM
–	> 100%	CC(C)OC(=O)C1=CN(C(=O)c2ccc(F)c(F)c2)CC(C)(C)c2c1[nH]c1ccccc21 [isopropyl 3-(3,4-difluorobenzoyl)-1,1-dimethyl-1,2,3,6-tetrahydroazepino[4,5-b]indole-5-carboxylate]	–	–	–
–	–	CCOC(=O)C1=CN(C(=O)c2ccc(F)cc2)CC(C)(C)c2c1[nH]c1cc(N(C)C(=O)NC3CC3)ccc21 [8-(3-cyclopropyl-1-methylureido)-3-(4-fluorobenzoyl)-1,1-dimethyl-1,2,3,6-tetrahydroazepino[4,5-b]indole-5-carboxylic acid ethyl ester]	< 100 nM	100%	–
–	–	CCOC(=O)C1=CN(C(=O)c2ccc(F)cc2)CC(C)(C)c2c1[nH]c1cc(OC(=O)NCc3cccs3)ccc21 [3-(4-fluorobenzoyl)-1,1-dimethyl-8-(thiophen-2-ylmethylcarbamoyloxy)-1,2,3,6-tetrahydroazepino[4,5-b]indole-5-carboxylic acid ethyl ester]	< 100 nM	100%	–
–	–	CCOC(=O)C1=CN(C(=O)c2ccc(F)cc2)CC(C)(C)c2c1[nH]c1ccc(N(Cc3ccccc3)C(=O)N(C)C)cc21 [9-(1-benzyl-3,3-dimethyl-ureido)-3-(4-fluoro-benzoyl)-1,1-dimethyl-1,2,3,6-tetrahydro-azepino[4,5-b]indole-5-carboxylic acid ethyl ester]	< 100 nM	100%	–
< 100 nM	> 100%	CC1Cc2c([nH]c3ccccc23)C(C(=O)NC2CCC2)=CN1C(=O)c1ccc(F)cc1 (stereo not drawn) [3-(4-fluorobenzoyl)-2-methyl-1,2,3,6-tetrahydroazepino[4,5-b]indole-5-carboxylic acid cyclobutylamide]	–	–	–
–	–	CCOC(=O)C1=CN(C(=O)c2ccc(F)cc2)CC(C)(C)c2c1[nH]c1cc(OC(=O)NC(C)C)ccc21 [3-(4-fluorobenzoyl)-1,1-dimethyl-8-isopropylcarbamoyloxy-1,2,3,6-tetrahydroazepino[4,5-b]indole-5-carboxylic acid ethyl ester]	< 100 nM	100%	–
< 100 nM	> 100%	CCOC(=O)C1=CN(C(=O)c2ccc(F)c(F)c2)CC2(CCCC2)c2c1[nH]c1ccccc21 [3-(3,4-difluorobenzoyl)-1,1-tetramethylene-1,2,3,6-tetrahydroazepino[4,5-b]indole-5-carboxylic acid ethyl ester]	–	–	–
–	–	CCOC(=O)C1=CN(C(=O)c2ccc(F)cc2)CC(C)(C)c2c1[nH]c1cc(N(C)C(=O)NCc3ccccn3)ccc21 [3-(4-fluorobenzoyl)-1,1-dimethyl-8-(1-methyl-3-pyridin-2-ylmethylureido)-1,2,3,6-tetrahydroazepino[4,5-b]indole-5-carboxylic acid ethyl ester]	< 100 nM	100%	–
< 100 nM	> 100%	CCOC(=O)C1=CN(C(=O)c2ccc(F)cc2)CC(C)(C)c2c1[nH]c1ccc(F)cc21 [9-Fluoro-3-(4-fluoro-benzoyl)-1,1-dimethyl-1,2,3,6-tetrahydro-azepino[4,5-b]indole-5-carboxylic acid ethyl ester]	–	–	–
–	–	CCOC(=O)C1=CN(C(=O)c2ccc(F)cc2)CC(C)(C)c2c1[nH]c1cc(OC(=O)NC3CC3)ccc21 [8-cyclopropylcarbamoyloxy-3-(4-fluorobenzoyl)-1,1-dimethyl-1,2,3,6-tetrahydroazepino[4,5-b]indole-5-carboxylic acid ethyl ester]	< 100 nM	100%	–
< 100 nM	> 100%	CC(C)OC(=O)C1=CN(C(=O)c2ccc(F)c(F)c2)CC(C)c2c1[nH]c1ccccc21 (stereo not drawn) [isopropyl 3-(3,4-difluorobenzoyl)-1-methyl-1,2,3,6-tetrahydroazepino[4,5-b]indole-5-carboxylate]	–	–	–
–	–	CCOC(=O)C1=CN(C(=O)c2ccc(F)cc2)CC(C)(C)c2c1[nH]c1cc(OC(=O)NCc3ccccn3)ccc21 [3-(4-fluorobenzoyl)-1,1-dimethyl-8-(pyridin-2-yl-methylcarbamoyloxy)-1,2,3,6-tetrahydroazepino[4,5-b]indole-5-carboxylic acid ethyl ester]	–	–	EC50 (farnesoid X receptor): < 200 nM; IC50 (farnesoid X receptor): < 200 nM; Emax (farnesoid X receptor): 10 to 30%

Structure (SMILES)	EC50 (farnesoid X receptor; [3])	Emax (farnesoid X receptor; [4])	IC50 (farnesoid X receptor; [2])	inhibition (farnesoid X receptor; [5])	other results
CCOC(=O)C1=CN(C(=O)c2ccc(F)cc2)CC(C)(C)c2c1[nH]c1cc(OC(=O)NCCc3ccccn3)ccc21 [3-(4-fluorobenzoyl)-1,1-dimethyl-8-(2-pyridin-2-yl-ethylcarbamoyloxy)-1,2,3,6-tetrahydroazepino[4,5-b]indole-5-carboxylic acid ethyl ester]	< 200 nM	10 to 30%	< 200 nM	–	–
CCOC(=O)C1=CN(C(=O)c2ccc(F)cc2)CC(C)(C)c2c1[nH]c1cc(OC(=O)NCc3cccnc3)ccc21 [3-(4-fluorobenzoyl)-1,1-dimethyl-8-(pyridin-3-ylmethylcarbamoyloxy)-1,2,3,6-tetrahydroazepino[4,5-b]indole-5-carboxylic acid ethyl ester]	< 200 nM	10 to 30%	< 200 nM	–	–
CCOC(=O)C1=CN(C(=O)c2ccc(F)cc2)CC(C)(C)c2c1[nH]c1cc(OC(=O)NCc3cnc(C)cn3)ccc21 [3-(4-fluorobenzoyl)-1,1-dimethyl-8-(5-methylpyrazin-2-ylmethylcarbamoyloxy)-1,2,3,6-tetrahydroazepino[4,5-b]indole-5-carboxylic acid ethyl ester]	< 200 nM	10 to 30%	< 200 nM	–	–
CCOC(=O)C1=CN(C(=O)c2ccc(F)cc2)CC(C)(C)c2c1[nH]c1cc(OC(=O)NC3CCCCC3)ccc21 [8-cyclohexylcarbamoyloxy-3-(4-fluorobenzoyl)-1,1-dimethyl-1,2,3,6-tetrahydroazepino[4,5-b]indole-5-carboxylic acid ethyl ester]	< 200 nM	10 to 30%	< 200 nM	–	–
